The target in one assay is T1, mRORγ (Mus musculus, UniProt P51450).
T1 construct: expressed in transfected cells; host or cells: CHO cells, transient transfection
Kind of assay: Transcriptional assay, Gal4-mRORγ with luciferase reporter in CHO cells. The assay is classed as cell-based. How it is done: The complete Gal4-mRORγ nucleotide sequence is shown below:
(§1) A firefly luciferase reporter gene for Gal4 DBD hybrid receptors, such as Gal4-RORγ, contains five copies of the Gal4 17-mer response element in its promoter and the coding sequence for firefly luciferase (pG5-luc, Promega). CHO (Chinese Hamster Ovary) cells were cultured in Ham's F12 medium supplemented with 10% fetal calf serum (Gemini Biologicals), 10 μg/ml penicillin and streptomycin, and were maintained in a humidified 37° C. incubator (Thermo Electron, Steri-Cycle) with 5% CO2. 24 hours before transfection, cells were plated in T175 flasks (5×10^6 cells/flask) or T75 flasks (1.7×10^6 cells/flask). Transient transfection of CHO cells was performed using TransIT-CHO reagents (Minis, Madison, Wis.) with a mixing ratio of 2:6:1 between plasmid DNA (in μg), TransIT-CHO (in μl) and CHO-mojo (in μl).
(§2) Plates are maintained at 37° C. in a humidified atmosphere with 7% CO2 overnight. Four (4) hours after cell seeding, compounds dissolved in DMSO at 10 mM were added to cells at final concentrations of 20 micromolar (μM) to 20 nanomolar (nM) in 0.2% DMSO in triplicate plates. Approximately 40 hours later, cytotoxicity in the assay well was characterized by addition of the dye resazurin (O'Brien, Wilson et al. 2000) to a final concentration of 3 μM. […] Percent viability was determined as 2 hour fluorescence, minus background at t=0 hours, normalized to DMSO controls. For detection of luciferase activity, media was removed from plates after the measurement of resazurin conversion, and SteadyLite luciferase reagent (Perkin-Elmer) was added (30 μl/well). Luminescence is detected with a Victor 2-V plate reader (Perkin-Elmer) and normalized to luciferase activity of DMSO control wells alone.

In a further assay the target is T2, mRORγ LBD (Mus musculus, UniProt P51450).
T2 construct: made in house; host or cells: Sf9 insect cells, baculovirus; cleared lysate used directly
T2 sequence (P51450 251-516): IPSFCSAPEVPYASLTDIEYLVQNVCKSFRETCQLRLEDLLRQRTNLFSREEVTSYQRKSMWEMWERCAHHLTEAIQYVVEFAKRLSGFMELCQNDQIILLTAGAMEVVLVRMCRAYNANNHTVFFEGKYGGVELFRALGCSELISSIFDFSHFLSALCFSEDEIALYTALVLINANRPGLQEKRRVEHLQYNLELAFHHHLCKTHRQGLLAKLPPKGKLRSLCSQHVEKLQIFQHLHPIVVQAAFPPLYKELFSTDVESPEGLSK
Kind of assay: Biochemical assay, coregulatory peptide recruitment to GST-RORγ LBD (FRET). The text has this: GST-RORγ was generated by subcloning the RORγ-LBD into pET-41a, a vector which expresses GST fusion proteins in bacteria.
The cloning steps for GST-RORγ were as follows. The mRORγ LBD was excised from Gal4-mRORγ (see above for cloning steps) at BamHI and HindIII sites of Sequence 1 and cloned into the corresponding sites of pET-41a(+) (EMD Biosciences, San Diego, Calif.). A GST-mRORγ fragment was then excised from pET-41a(+) at XbaI and XhoI sites and cloned into a pcDNA3.1vector (Invitrogen, Carlsbad, Calif.) restricted at NheI and XhoI sites. Plasmid GST-mRORγ-pcDNA3.1 was used as a PCR template to generate a GST-mRORγ fragment that was later cloned into pENTR/D-TOPO vector (Invitrogen, Carlsbad, Calif.) by standard cloning techniques recommended by the manufacturer of the vector. The nucleotide sequence of GST-mRORγ is shown below:
For baculoviral expression of RORγ, the cDNA fragment of GST-RORγ— LBD, was subcloned from pET-41a into the pENTR/D-TOPO vector using a commercially-available kit (BaculoDirect, Invitrogen). Briefly, GST-RORγ carried by pENTR/D-TOPO was transfected into mono-layer Sf9 cells (8×10^5/well in 6-well plates) by Cellfectin (Invitrogen). Sf9 cells were incubated at 27° C. in a non-humidified incubator for 72 hours. Cell media was collected as P1 viral stock and used to further infect Sf9 cells to generate P2 and P3 virus. […] A plaque assay was performed to determine the titer of P3 virus and to isolate single plaques. P4 virus was generated from a single plaque and propagated on a larger scale.
Adherent SF9 cells were infected with baculovirus carrying GST-RORγ and were cultured for 72 hours. Sf9 cell were then subject to a brief sonication in a lysis buffer (20 mM phosphate, pH 6.8, 50 mM KCl, 50 mM NaCl, 0.5 mM EDTA, 50% glycerol, 0.001% NP-40 and 1 mM DTT) and centrifuged at 3000 rpm for 15 minutes. […] Cleared cell lysate was stored at −70° C. and is directly utilized in the coregulatory peptide recruitment assay.
The labeled probes anti-GST-APC and SA-RPE were purchased from Prozyme (San Leandro, Calif.). Compounds were added directly from a DMSO solution to a final concentration of 1-2% DMSO. Fluorescence was measured on a Wallac Victor 2 V plate reader equipped with a 670/40 nm filter (Omega Optical, Brattleboro, Vt.) for APC emission (Channel A) and a 600/25 bandpass filter for monitoring the RPE emission (Channel B).

Assay [1] has as its target T3, mLXRα (Liver X receptor alpha) (Mus musculus, UniProt Q9Z0Y9).
T3 construct: 172-455; expressed in transfected cells; host or cells: CHO cells, transient transfection
T3 sequence (Q9Z0Y9 172-445 limits assumed): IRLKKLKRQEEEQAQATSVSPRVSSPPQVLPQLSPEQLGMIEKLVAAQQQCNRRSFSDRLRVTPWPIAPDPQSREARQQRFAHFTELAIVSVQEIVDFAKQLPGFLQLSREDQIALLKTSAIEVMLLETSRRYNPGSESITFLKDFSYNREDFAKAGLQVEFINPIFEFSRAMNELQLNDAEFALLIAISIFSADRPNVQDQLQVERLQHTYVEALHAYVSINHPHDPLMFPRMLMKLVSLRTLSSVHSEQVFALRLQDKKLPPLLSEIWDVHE
The assay can be described thus: Transcriptional assay of LXRα (Gal4-LXRα hybrid). The assay is classed as cell-based. Particulars: for EC50: Table 7, no unit printed for this column (b114 gives 1.5 μM for OR-1050), read-out: Transcriptional Assay of LXRα EC50; for specificity for RORγ versus LXRα: comparison of transcriptional assays for RORγ and LXRα (Table 7). How it is done: as §1, §2
A transcriptional assay for LXRα, using a Gal4-LXRα hybrid, was implemented in order to compare RORγ ligand potencies. In addition to LXRα, transcriptional assays for a number of other major nuclear receptors were developed.

Where [2] appears, read: Table 2, agonists, antagonist OR-376 (1.5 μM) added to reduce basal transcriptional activity, read-out: EC50 in micromolar at mRORγ Transcriptional.
Setting [3] is: Table 1, mRORγ and peptide K1, read-out: Assay EC50 in micromolar at mRORγ Biochemical.
Setting [4] is: Table 7, taken from Table 1 (peptide K1), read-out: Assay EC50 in micromolar at mRORγ Biochemical.
Setting [5] is: Table 1, antagonists, inhibition of basal Gal4-mRORγ transcription in CHO cells, read-out: Assay EC50 in micromolar at mRORγ Transcriptional.
The mark [6] stands for this setting: Table 7, taken from Table 1, read-out: Assay EC50 in micromolar at mRORγ Transcriptional.
Where [7] appears, read: Table 2, agonists, biotinylated peptide K, 50% of estimated maximum FRET signal, read-out: EC50 in micromolar at mRORγ Biochemical.

The structures appear in SMILES notation. Like-named read-outs stand apart in the source and are kept apart here. Where only a bound is given, the exact number is not on record here.

T1 sequence (P51450 with tags, fused parts or gaps): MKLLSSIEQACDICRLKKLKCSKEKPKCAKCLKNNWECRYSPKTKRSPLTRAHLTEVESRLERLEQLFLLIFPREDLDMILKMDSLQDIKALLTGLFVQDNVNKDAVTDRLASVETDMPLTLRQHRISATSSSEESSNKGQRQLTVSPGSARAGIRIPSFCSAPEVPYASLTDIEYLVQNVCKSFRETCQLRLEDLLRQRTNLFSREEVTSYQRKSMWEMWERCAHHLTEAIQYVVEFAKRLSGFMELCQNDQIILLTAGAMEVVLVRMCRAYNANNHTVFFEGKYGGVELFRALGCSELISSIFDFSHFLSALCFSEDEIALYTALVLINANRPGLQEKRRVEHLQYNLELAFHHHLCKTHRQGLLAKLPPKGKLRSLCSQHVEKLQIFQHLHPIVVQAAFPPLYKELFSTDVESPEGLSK

Take `CNC(=O)CCC(C)C1CCC2C1CCC1C3CCC(O)CC3C(O)CC21` (centres unmarked) [OR-12867, 4-(3,6-Dihydroxy-hexadecahydro-cyclopenta[a]phenanthren-17-yl)-pentanoic acid methylamide]: the EC50 on mRORγ (setting [2]) is > 20 µM.
As usually defined, the Emax is the greatest response seen or fitted, relative to the assay's reference. Take `CCCCc1ccc(S(=O)(=O)N(CC)c2ccc(C(O)(C(F)(F)F)C(F)(F)F)cc2)cc1` [OR-1047, 4-Butyl-N-ethyl-N-[4-(2,2,2-trifluoro-1-hydroxy-1-trifluoromethyl-ethyl)-phenyl]-benzenesulfonamide]: the EC50 is 5.8 µM on mRORγ LBD (setting [3]); 5.8 µM on mRORγ LBD (setting [4]); > 20 µM in assay [1]; 3.6 µM at mRORγ (setting [5]); 3.6 µM at mRORγ (setting [6]). Also, the Emax in assay [1] was < 5%. The “specificity for RORγ versus LXRα” value in assay [1] is “more specific for RORγ than LXRα”.
With `CC(=O)CCC(C)C1CCC2C3CC(O)C4CC(O)CCC4(C)C3CCC12C` (centres unmarked) [OR-12870, 5-(3,6-Dihydroxy-10,13-dimethyl-hexadecahydro-cyclopenta[a]phenanthren-17-yl)-hexan-2-one], the EC50 at mRORγ (setting [2]) is 4.1 µM.
Consider `CCN(c1ccc(C(O)(C(F)(F)F)C(F)(F)F)cc1)S(=O)(=O)c1ccc(Br)cc1` [OR-1048, 4-Bromo-N-ethyl-N-[4-(2,2,2-trifluoro-1-hydroxy-1-trifluoromethyl-ethyl)-phenyl]-benzene sulfonamide], for which the EC50 came to 0.42 µM at mRORγ LBD (setting [3]); 0.42 µM at mRORγ LBD (setting [4]); 0.57 µM in assay [1]; 0.12 µM at mRORγ (setting [5]); 0.12 µM at mRORγ (setting [6]). Moreover, the Emax in assay [1] is > 80%. Moreover, the “specificity for RORγ versus LXRα” value in assay [1] is listed as “more specific for RORγ than LXRα”.
On to `CC(O)CCC(C)C1CCC2C3CC(O)C4CC(O)CCC4(C)C3CCC12C` (centres unmarked) [OR-12871, 17-(4-Hydroxy-1-methyl-pentyl)-10,13-dimethyl-hexadecahydro-cyclopenta[a]phenanthrene-3,6-diol], for which the EC50 at mRORγ LBD (setting [7]) was 0.25 µM; on mRORγ (setting [2]), 8.3 µM.
For `C[C@@H]1CC[C@@]2(OC1)O[C@H]1C[C@H]3[C@@H]4CC[C@H]5C[C@@H](O)CC[C@]5(C)[C@H]4C(=O)[C@@H](O)[C@]3(C)[C@H]1[C@@H]2C` [OR-345, 5α, 20α, 22α, 25D-SPIROSTAN-3β, 12β-DIOL-11-ONE], the EC50 at mRORγ LBD (Table 3, peptide K and 1 μM OR-942, inhibition of the OR-942 baseline by 50%, read-out: Assay EC50 in micromolar biochemical) stood at 12.7 µM; on mRORγ (Table 3, steroidal antagonists, read-out: Assay EC50 in micromolar transcriptional), 5 µM.
Consider `COC(=O)CCC(C)C1CCC2C3CC(O)C4CC(O)CCC4(C)C3CCC12C` (centres unmarked) [OR-942, 4-(3,6-Dihydroxy-10,13-dimethyl-hexadecahydro-cyclopenta[a]phenanthren-17-yl)-pentanoic acid methyl ester], for which the EC50 at mRORγ LBD (GST-RORγ and peptide K, in the presence of antagonist T0901317 (FIG. 5), read-out: estimated EC50 in biochemical assay, shifted by antagonist) was 4 µM; on mRORγ LBD (GST-RORγ and peptide K, without T0901317 (FIG. 5), read-out: estimated EC50 in biochemical assay), 0.4 µM; at mRORγ LBD (setting [7]) it was 0.12 µM; on mRORγ (setting [2]) it was 1.5 µM. Moreover, at mRORγ (in the presence of one micromolar antagonist T0901317, CHO cells (FIG. 4A)), the “activation of RORγ transcriptional activity” value is “approximately 8 fold”.
Take `CC(CCC(C)(C)O)C1CCC2C3CC(O)C4CC(O)CCC4(C)C3CCC12C` (centres unmarked) [OR-12865, 17-(4-Hydroxy-1,4-dimethyl-pentyl)-10,13-dimethyl-hexadecahydro-cyclopenta[a]phenanthrene-3,6-diol]: the EC50 was 0.21 µM at mRORγ LBD (setting [7]) and 8.3 µM at mRORγ (setting [2]).
On the same counts, the results for `CC(CCC(=O)N(C)C)C1CCC2C3CC(O)C4CC(O)CCC4(C)C3CCC12C` (centres unmarked) [OR-12868, 4-(3,6-Dihydroxy-10,13-dimethyl-hexadecahydro-cyclopenta[a]phenanthren-17-yl)-pentanoic acid dimethylamide] are 0.56 µM and 5.2 µM.
In the case of `CC(CCC(=O)O)C1CCC2C1CCC1C3CCC(O)CC3C(O)CC21` (centres unmarked) [OR-412, 4-(3,6-Dihydroxy-hexadecahydro-cyclopenta[a]phenanthren-17-yl)-pentanoic acid], the EC50 on mRORγ LBD (setting [7]) was > 100 µM; at mRORγ (setting [2]), > 20 µM.
The matching figures for `COCCCC(C)C1CCC2C3CC(O)C4CC(O)CCC4(C)C3CCC12C` (centres unmarked) [OR-12864, 17-(4-Methoxy-1-methyl-butyl)-10,13-dimethyl-hexadecahydro-cyclopenta[a]phenanthrene-3,6-diol]: 0.23 µM and 6 µM.
The matching figures for `CC(CCCO)C1CCC2C3CC(O)C4CC(O)CCC4(C)C3CCC12C` (centres unmarked) [OR-12863, 17-(4-Hydroxy-1-methyl-butyl)-10,13-dimethyl-hexadecahydro-cyclopenta[a]phenanthrene-3,6-diol]: 0.67 µM and 4.1 µM.
On to `CC(CCC(=O)N1CCCCC1)C1CCC2C1CCC1C3CCC(O)CC3C(O)CC21` (centres unmarked) [OR-12869, 4-(3,6-Dihydroxy-hexadecahydro-cyclopenta[a]phenanthren-17-yl)-1-piperidin-1-yl-pentan-1-one], for which the EC50 at mRORγ (setting [2]) was > 20 µM.
`COC(C)(C)CCC(C)C1CCC2C3CC(O)C4CC(O)CCC4(C)C3CCC12C` (centres unmarked) [OR-12866, 17-(4-Methoxy-1,4-dimethyl-pentyl)-10,13-dimethyl-hexadecahydro-cyclopenta[a]phenanthrene-3,6-diol]: the EC50 at mRORγ LBD (setting [7]) is 0.14 µM; at mRORγ (setting [2]) it was 0.56 µM.
